Data from paper PMC12040169 (PLOS Biology, 2025).

Assay: in vitro
Settings: human, hela cells, % viability

Point of comparison: `O=C(NCCCn1ccnn1)c1cccc(S(=O)(=O)N2CCCCC2)c1` [CBK304660], viability at 28.5 h, 10 µM 104%. Against it:
- COc1cccc(OCC(=O)NCC(c2cccs2)N2CCOCC2)c1 (stereo not shown) [CBK304664] — lower, 91.6%
- Cc1ocnc1C(=O)NCC1CCN(c2ccccc2F)C1 (stereo not shown) [CBK304671] — lower, 92.6%
- Cc1ccc(C)c(C(C)NC(=O)C2CCCN(S(C)(=O)=O)C2)c1 (stereo not shown) [CBK304672] — lower, 96.6%
- Cc1cc(C)c(CNC(=O)C2CC(=O)N(Cc3ccccn3)C2)cn1 (stereo not shown) [CBK304673] — lower, 89.8%
- COc1ccc(CCC(=O)NCC(c2cccs2)N2CCOCC2)cc1 (stereo not shown) [CBK304674] — higher, 107%
- O=C(NCCCn1ccnc1)c1cccc(S(=O)(=O)N2CCCCC2)c1 [CBK304687] — higher, 111%
- CCOC(=O)N1CCC(NS(=O)(=O)c2cc(C(=O)OC)n(C)c2)CC1 [CBK304688] — lower, 92.3%
- CCOc1cc(NC2CCN(C(=O)Cc3cc(C)on3)CC2)ncn1 [CBK304689] — higher, 113%
- O=C(CCc1ccncc1)N1CCOC(c2ccc(F)cc2F)C1 (stereo not shown) [CBK304692] — lower, 98.3%
- CCCC(=O)N(C)C(CO)c1cc(OC)ccc1Br (stereo not shown) [CBK304694] — lower, 95.4%
- Cc1nsc(NCc2ccccc2CN2CCC(O)CC2)c1C#N [CBK304695] — lower, 95.1%
- CC(C)Cc1nsc(NC2CCCN(c3ccn(C)n3)C2=O)n1 (stereo not shown) [CBK304696] — lower, 91.2%
- CNCC1CCN(C(=O)c2ccc(Oc3cccnc3)cc2)C1 (stereo not shown) [CBK304697] — lower, 91.5%
- Cc1c(C(=O)N(C)C2CCNC2)nnn1-c1ccc2ncccc2c1 (stereo not shown) [CBK304698] — lower, 94.5%
- COc1ccnc(N2CCC(Oc3cccnc3N(C)C)C2)n1 (stereo not shown) [CBK304699] — lower, 92.4%
- COCCc1nsc(N2CCC(N(C)c3cccnn3)CC2)n1 [CBK304701] — lower, 94.1%
- Cc1ccc(CS(=O)(=O)N2CCN(CCO)C(C)C2)c(F)c1 (stereo not shown) [CBK304702] — higher, 105%
- Cc1csc(NC(=O)CN2CCOC(c3ccc(F)cc3)C2)n1 (stereo not shown) [CBK304703] — higher, 116%
- Cc1nonc1-c1csc(CC(C)n2cc(Cl)cn2)n1 (stereo not shown) [CBK304704] — lower, 92.2%
- Cc1nc(S(=O)(=O)Cc2c(F)cccc2Cl)n(CC2CCCO2)c1C (stereo not shown) [CBK304706] — lower, 87.9%
- CC(Cc1nc(C2CC2)cs1)n1cc(Cl)cn1 (stereo not shown) [CBK304707] — lower, 90.1%
- Cc1nnnn1-c1cc(NC(=O)N(C)C(C)C)ccc1F [CBK304708] — lower, 93.2%
- Cc1nc(CN2CCN(c3cccc(C(F)(F)F)n3)CC2)cs1 [CBK304709] — lower, 93.9%
- CC(C)(C)OC(=O)N1CCCCC1(C)c1nnc(-c2cccnc2)o1 (stereo not shown) [CBK304714] — lower, 90.2%
- CC(Cc1nc(C2(Cl)CC2)cs1)n1cc(Cl)cn1 (stereo not shown) [CBK304715] — lower, 85.5%
- COCc1nc2n(n1)CC(NC(C)C(C)OCc1ccccc1)CC2 (stereo not shown) [CBK304724] — lower, 95.8%
- CCc1ccc2c(c1)C(CCNC(=O)c1ncoc1C(F)(F)F)C(=O)N2 (stereo not shown) [CBK304725] — lower, 99.4%
- Cc1nn(C)c(S(=O)(=O)N2CCOCC2c2cccc(F)c2)c1C(F)F (stereo not shown) [CBK304729] — lower, 86.3%
- CCc1ccc(C(O)CNC2CCN(Cc3cscn3)CC2)cc1 (stereo not shown) [CBK304733] — higher, 108%
- Cc1c(NC2CCN(c3ccc(C#N)cc3)C2=O)cnn1C1CCCC1 (stereo not shown) [CBK304735] — higher, 113%
- CCC(NC1CCc2nc(COC)nn2C1)C1CCC1 (stereo not shown) [CBK304739] — lower, 87.8%
- Cc1ccc2[nH]c(CNC(=O)c3cn[nH]c3C3CCCCN3)nc2c1 (stereo not shown) [CBK304741] — lower, 100%
- CN(Cc1ccc(Cl)c(F)c1)C(=O)c1cn[nH]c1C1CCCCN1 (stereo not shown) [CBK304742] — lower, 103%
- NC(=O)c1cn[nH]c1C1CCCCN1Cc1cccc2c1CCOC2 (stereo not shown) [CBK304745] — lower, 83.1%
- N#Cc1cc(Cl)ccc1CN1CCCCC1c1[nH]ncc1C(N)=O (stereo not shown) [CBK304746] — lower, 88.5%
- Cc1noc(C2(O)CCN(Cc3cccc(Cl)c3F)C2)n1 (stereo not shown) [CBK304748] — lower, 99.3%
- CCn1nncc1CNC1CCc2[nH]c3ccc(C)cc3c2C1 (stereo not shown) [CBK304749] — lower, 98.3%
- CCOc1cccc(CN2CCCCC2c2[nH]ncc2C(N)=O)n1 (stereo not shown) [CBK304750] — lower, 98.9%
- CC(C)OCC1CN(c2cc(CO)c(F)cn2)CCO1 (stereo not shown) [CBK304755] — lower, 89.7%
- Cn1nnc2cc(NCC34CC3CN(C(=O)OC(C)(C)C)C4)ccc21 (stereo not shown) [CBK304758] — lower, 92.7%
- CCOC(=O)C1CSCN1C(=O)c1cnn(C(CC)CC)c1C (stereo not shown) [CBK304759] — higher, 106%
- O=C(CC1CCCO1)N1CCn2c(nnc2-c2cncc(Br)c2)C1 (stereo not shown) [CBK304762] — lower, 91.4%
- CCOCCCC(=O)N1CCn2c(nnc2-c2cncc(Br)c2)C1 [CBK304764] — lower, 91.5%
- CNS(=O)(=O)c1ccc(C(C)NC(=O)N2CCN3CCC2CC3)cc1 (stereo not shown) [CBK304765] — lower, 92.2%
- N#Cc1ccc(CN2CCC(NC3CCCn4nccc43)C2=O)cc1 (stereo not shown) [CBK304770] — lower, 97.8%
- Cc1conc1C(=O)N1CCCCC1CN1CCOCC1 (stereo not shown) [CBK304771] — lower, 92.7%
- CC1CN(c2cc(CO)c(F)cn2)CC2(CCOCC2)O1 (stereo not shown) [CBK304773] — lower, 91.9%
- CC1OCCC12CN(c1cc(CO)c(F)cn1)CCO2 (stereo not shown) [CBK304775] — lower, 102%
- Cn1ncc2ccc(-c3nnn[nH]3)cc21 [CBK304776] — lower, 93%
- Cc1cc(N2CCN(C(=O)CCc3nccs3)CC2)nc(C(C)C)n1 [CBK304778] — lower, 98.8%
- Cc1nc(C(C)NC(=O)c2cc(C3CC3)nc3c2c(C)nn3C)cs1 (stereo not shown) [CBK304779] — lower, 93.7%
- COCC(=O)N(C)C(CO)c1cc(OC)ccc1Br (stereo not shown) [CBK304780] — lower, 88.7%
- Cn1c(CN2CCN(c3ccc(C#N)cn3)CC2)nnc1C1CC1 [CBK304781] — lower, 92.5%
- CC(CN(C)C(=O)c1cn[nH]c1C1CCNC1)Oc1ccc(Cl)c(Cl)c1 (stereo not shown) [CBK304786] — lower, 91.1%
- Cc1nc(C)n(CC2CCCN(Cc3cc(C#N)cs3)C2)n1 (stereo not shown) [CBK304787] — lower, 92%
- CCn1c(=O)n(CC2(O)CCCOC2)c2cc(S(=O)(=O)N(C)C)ccc21 (stereo not shown) [CBK304788] — lower, 90.6%
- CN(C)c1ncccc1OC1CCN(c2nnc(C(F)(F)F)s2)C1 (stereo not shown) [CBK304789] — lower, 97.1%
- CCn1cc(S(=O)(=O)NC2CCc3[nH]c4ccc(C)cc4c3C2)cn1 (stereo not shown) [CBK304790] — lower, 99.7%
- Fc1cc(Br)c(CNCc2cocn2)c(N2CCCCC2)c1F [CBK304792] — lower, 86.8%
- CCc1csc(C2CN3CCCC3CO2)n1 (stereo not shown) [CBK304793] — lower, 89.4%
- COCCNS(=O)(=O)c1ccc(Br)c(C(=O)N(C)Cc2cnn(C)c2)c1 [CBK304795] — lower, 96.6%
- CCN(CC(C)C#N)C(=O)c1ccc2ccccc2n1 (stereo not shown) [CBK304801] — lower, 96.6%
- CCCOC1CCCN(C(=O)c2cc(Cl)c[nH]2)C1 (stereo not shown) [CBK304802] — lower, 97.5%
- CCC(CNC(=O)c1cccc(C)n1)N1CCCC1 (stereo not shown) [CBK304803] — higher, 116%
- Cc1csc(CNCc2c(C)nn(C)c2N(C)C)n1 [CBK304804] — lower, 103%
- CCC(C)c1csc(C2CN3CCCC3CO2)n1 (stereo not shown) [CBK304805] — lower, 81.5%
- CC(C)Cc1csc(C2CN3CCCC3CO2)n1 (stereo not shown) [CBK304807] — lower, 83.9%
- Cc1nc(CNCc2c(C)nn(C)c2N(C)C)cs1 [CBK304808] — lower, 95.3%
- CCN1CCOC(CNc2ncnc3c2CCC3)C1 (stereo not shown) [CBK304811] — higher, 106%
- c1ccc(C(NCc2cncs2)C2CCCC2)cc1 (stereo not shown) [CBK304812] — lower, 82.6%
- c1sc(C2CN3CCCC3CO2)nc1C1CCCC1 (stereo not shown) [CBK304814] — lower, 90.4%
- COc1ccnc(N2CCc3c(ncn3C3CC3)C2)n1 [CBK304816] — lower, 95.7%
- COCCNC(=O)N1CCN(Cc2ccccn2)CC1 [CBK304817] — higher, 110%
- COCC1CCCN(Cc2cn(C)nc2C(C)(C)C)C1 (stereo not shown) [CBK304818] — higher, 108%
- Cc1occc1-c1nnc(NCc2cnn(C)c2C)o1 [CBK304819] — lower, 92.3%
- CC(C)C(CNCc1ccsc1)c1ccnn1C (stereo not shown) [CBK304821] — lower, 93.9%
- CC(C)C(CNCc1ccn(C)c1)c1ccnn1C (stereo not shown) [CBK304822] — lower, 91%
- CCSC1CCC(N(C)CC(=O)NCc2ccco2)C1 (stereo not shown) [CBK304823] — lower, 84.3%
- CCC(=O)N(C)C1CCN(c2ncnc3ccccc23)CC1 [CBK304829] — lower, 91.8%
- CN1CCOC(CNCc2ccc(OCC(N)=O)cc2)C1 (stereo not shown) [CBK304830] — lower, 102%
- Cc1cc(C)n(CC(C)CNC(=O)CCCN(C)C)n1 (stereo not shown) [CBK304831] — lower, 93%
- CCOC(=O)C1(O)CCN(c2ccc(C#N)cc2F)CC1 [CBK304836] — lower, 94%
- CCCCn1nccc1NC(=O)NC(C)c1ccncc1 (stereo not shown) [CBK304840] — lower, 99.2%
- CCCc1n[nH]c(C2CN(CCn3cccn3)CCO2)n1 (stereo not shown) [CBK304842] — higher, 106%
- Cc1noc(C)c1CN1CC2CCN(c3ccccc3)C2C1 (stereo not shown) [CBK304847] — lower, 99.7%
- CCOC(=O)C1CCCN(Cc2nnsc2Cl)C1 (stereo not shown) [CBK304848] — lower, 95.7%
- Cn1cc(C2CCCN2C(=O)c2cccc(C#N)c2)cn1 (stereo not shown) [CBK304849] — lower, 98%
- COCCOC1CN(Cc2cn(-c3ccc(Br)cc3)nc2C(C)C)C1 [CBK304852] — lower, 87.7%
- CC1CCC(C(N)=O)CN1c1cc(Br)ccn1 (stereo not shown) [CBK304856] — lower, 94.9%
- CN(Cc1ccco1)C(=O)c1cccc(NC(=O)C2CC2)c1 [CBK304857] — lower, 101%
- COc1cccc(CNCC(c2ccnn2C)C(C)C)n1 (stereo not shown) [CBK304858] — higher, 105%
- COc1cccc(CC(=O)N(CCC#N)Cc2ccco2)c1 [CBK304859] — lower, 92.5%
- O=C(Nc1cccc(F)c1)N(CCO)Cc1cccnc1 [CBK304860] — the same, 104%
- CCCn1ccc(CNCC(c2ccnn2C)C(C)C)c1 (stereo not shown) [CBK304861] — lower, 87%
- COc1ccc(C(=O)N(CCC#N)Cc2ccco2)cc1 [CBK304862] — lower, 93.5%
- CCCn1cc(NC(=O)NC(C)(CC)CO)ccc1=O (stereo not shown) [CBK304864] — lower, 88.7%
